Measured values from US7939689B2, “Short-acting sedative hypnotic agents for anesthesia and sedation” (Theravance, Inc., priority 2002, dated 2011).

What was measured:
[1] = test system: guinea pigs; assay: Test A: bolus administration (guinea pigs), loss of righting reflex; assay type: in vivo, guinea pig; conditions: bolus via ear vein, calculated from dose response
Protocol: (§1) Test compounds, e.g., representative compounds of the invention as well as the comparison compound, propanidid, were formulated in (1) 10% cremophor EL/90% D5W (5% dextrose in distilled water) (2) 10% Liposyn® III (Intravenous Fat Emulsion, containing (per 100 mL) 10 g soybean oil, 1.2 g egg phosphatides and […]), available from Abbott Laboratories, North Chicago, Ill.; and (3) injections (10) or (11) (as described in Example 16) with Miglyol® 810 (caprylic/capric glyceride). Typically, formulation (1) above was used for bolus dosing and formulations (2) or (3) for infusion dosing. Compounds of the invention and propanidid were synthesized as described in Examples 1-15 below. Propofol formulated in soybean oil, sold as Diprivan® injectable emulsion was obtained from AstraZeneca (Wilmington, Del.).
Bolus Administration (Guinea Pigs)
Adult male guinea pigs were dosed by bolus administration (0.1-0.25 mL volume) via an ear vein. Duration of loss of righting reflex was measured as described above for rats.
Bolus administration (guinea pigs): The potency of compound 1 was also tested in guinea pigs by the analogous procedure. The dose of compound 1 required to produce 2 minutes of loss of righting reflex in guinea pigs was calculated to be 8 mg/kg, as compared with a dose of 13 mg/kg for propanidid.

[2] = test system: rats; assay: Test A: administration by infusion (rats), recovery after termination of infusion; assay type: in vivo, rat (Sprague-Dawley)
Protocol: as §1
Administration by Infusion (Rats)
Rats (adult Sprague-Dawley) were placed in a perspex restrainer and anesthesia induced by bolus injection via the tail vein (0.15-1 mL/kg over approximately 3 seconds at a dose, estimated from the earlier bolus experiments, to produce anesthesia of approximately 2 minutes duration). Immediately after bolus administration, an infusion (with a duration of typically 20, 180 or 300 minutes), via the tail vein, was commenced (0.075-0.5 mL/kg/min at a half of the bolus dose/min). In some experiments, the initial infusion rate was maintained throughout, while in others, the rate was modified as necessary to maintain a consistent depth of anesthesia (as defined by moderate paw withdrawal in response to noxious pinch). Following completion of the infusion, duration of anesthesia (i.e. duration of loss of righting reflex) and behavioral recovery (i.e. duration of ataxia, sedation or lethargy following return of the righting reflex) was recorded.
Administration by infusion (rats): Recovery times following termination of administration by infusion in rats were determined for compound 1 and for the comparison compounds propofol and propanidid. The duration of the loss of righting reflex (in minutes) following termination of infusion is given as a function of duration of infusion in Table 2 below.

[3] = 20 minute Infusion via tail vein

| Compound | dose required to produce 2 minutes of loss of righting reflex [1] [mg/kg] | Duration of Loss of Righting Reflex Following Termination of Infusion [2, 3] [min] | Duration of Loss of Righting Reflex Following Termination of Infusion ([2]; 3 hour Infusion via tail vein) [min] | Duration of Loss of Righting Reflex Following Termination of Infusion ([2]; 5 hour Infusion via tail vein) [min] |
| --- | --- | --- | --- | --- |
| CCCOC(=O)Cc1ccc(OCC(=O)N(CC)CC)c(OCC)c1 [Compound 1, [4-[(N,N-Diethylcarbamoyl)methoxy]-3-ethoxyphenyl]acetic acid propyl ester] | 8 | 1.4 ± 0.1 | 1.7 ± 0.1 | 2.6 ± 1.0 |
| CCCOC(=O)Cc1ccc(OCC(=O)N(CC)CC)c(OC)c1 [Propanidid, [4-[(N,N-diethylcarbamoyl)methoxy]-3-methoxyphenyl]acetic acid propyl ester] | 13 | 1.6 ± 0.2 | 1.4 ± 0.1 | – |
| CC(C)c1cccc(C(C)C)c1O [Propofol, 2,6-diisopropylphenol] | – | 30.0 ± 2.9 | 47.8 ± 5.3 | 59.0 ± 1.4 |
